The text below walks through data of patent US11667919B2, “Targeting cancer-associated long non-coding RNAs” (University of Pittsburgh—Of the Commonwealth System of …, priority 2018, dated 2023).

What all share (format): cell-based, human
Data set [1] has as its system MCF-7, BT-474, ZR-75-1 and A549 cells. In words: MTT growth inhibition by BET inhibitors in EPIC1 knockdown or overexpressing cells. The settings on record: EPIC1 overexpression; MCF-7 and A549 cells. The procedure:
For RNA interference, cells were transfected with 40 nM siRNA targeting EPIC1, or control siRNA using Lipofectamine RNAiMAX (Thermo Fisher, #13778150) per the manufacturer's instructions. For quantitative real-time PCR (qRT-PCR) analysis, total RNA was isolated 72 h later using an RNeasy Mini kit (Qiagen, #74104) according to the manufacturer's instructions; cDNAs were synthesized from 0.5 μg of total RNA using a High-Capacity cDNA Reverse Transcription Kit (Applied Biosystems, #4368813). qRT-PCR was performed with Power SYBR Green PCR Master Mix (Applied Biosystems, #4367659) on a QuantStudio 6 Flex Real-Time PCR System (Applied Biosystems). Relative gene expression was determined by ΔΔCt normalized to GAPDH.
Validation of IncRNA-drug predictive pairs in cell lines. MCF-7 cells (MCF-7/Vector and MCF-7/EPIC1) and A549 cells (A549/Vector and A549/EPIC1) stably expressing an empty vector and EPIC1 were established with retroviral particles using the previously published method. […]
The ectopic expression level of EPIC1 in stable cells was confirmed using PCR. […] The absorbance value was measured at 570 nm using an xMark Microplate Spectrophotometer (Bio-Rad) with a reference wavelength of 630 nm and the IC50 of JQ-1 and I-BET-762 on cells was calculated, respectively.

A further data set has as its system MCF-7 and ZR-75-1 cells. In words: Cell cycle assay (PI staining, flow cytometry). Conditions: LNA against EPIC1, MCF-7 cells. As to the method: For the cell cycle assay, cells were collected, rinsed with PBS, and fixed for a minimum of 2 hr by adding 70% ice-cold ethanol at −20° C. Cells were then sequentially washed once in PBS and BD Pharmingen stain buffer (BD Biosciences, #554656). Cell pellets were resuspended in 0.5 ml of BD Pharmingen PI/RNase staining buffer (BD Biosciences, #550825) and incubated for 15 min at room temperature (RT), and cells were immediately analyzed using an LSRFORTESSA X-20 flow cytometer (BD Biosciences). The data were analyzed with FlowJo software.

The subject of a further data set is Myc targets. The data set is described as follows: Myc target expression after knockdown (RNA-seq, qRT-PCR, western blot). Conditions: LNA against EPIC1, MCF-7 cells. The procedure:
For RNA interference, cells were transfected with 40 nM siRNA targeting EPIC1, Myc, or a control siRNA using Lipofectamine RNAiMAX (ThermoFisher, #13778150) per the manufacturer's instructions. Total RNA was isolated 72 hr later for real-time PCR analysis. The siRNA sequences are SEQ ID NOS: 4-6.
For LNA transfection, cells were transfected with 40 nM LNA oligos targeting EPIC1, and a scramble control using Lipofectamine™ RNAiMAX per the guidelines. The LNA oligos (e.g., SEQ ID NO: 9) were designed and synthesized from Exiqon.
RNA Isolation and Quantitative Real-Time PCR (qRT-PCR) Assays: Total RNA was isolated from cultured cells using an RNeasy Mini kit (Qiagen, #74104) according to the manufacturer's instructions. cDNAs were synthesized from […] of total RNA using a High-Capacity cDNA Reverse Transcription Kit (Applied Biosystems, #4368813). Real-time PCR was performed with Power SYBR Green PCR Master Mix (Applied Biosystems, #4367659) on a QuantStudio 6 Flex Real-Time PCR System (Applied Biosystems). Relative gene expression was determined by DDCt normalized to GAPDH.
Cell lysates were also treated with equal volume of 2× SDS sample buffer and resolved by SDS-PAGE under denaturing conditions and transferred onto PVDF membranes (Bio-Rad, #162-0177). […]
On the technique in general: Real-time PCR tracks product formation cycle by cycle.

As to `CCNC(=O)C[C@@H]1N=C(c2ccc(Cl)cc2)c2cc(OC)ccc2-n2c(C)nnc21` [iBET762, I-BET-762 (iBET762)], the “resistance to BET inhibitor promoted by EPIC1” value in data set [1] was “strongly promotes iBET762 and JQ-1 resistance”.
The same measure, in the same setting: with (+)-JQ1 [JQ-1] the entry was “strongly promotes iBET762 and JQ-1 resistance”.
As to “LNA: LNA oligo targeting EPIC1, e.g. SEQ ID NO: 9 (5′-GTCGACTCCTGCCGGA-3′), designed and synthesized from Exiqon (LNA oligo from Exiqon, LNA positions not given here)”, the cell-cycle analysis entry in the data set on MCF-7 and ZR-75-1 cells is given as “significantly caused Gi arrest of MCF-7 cells”. Also, the “expression of Myc target genes” value with Myc targets is given as “curtailed the expression of Myc target genes”.
